Experiments:
[1] = tested on: differentiation of macrophages into osteoclasts; assay: Inhibitory effect on differentiation of macrophages into osteoclasts (rhM-CSF/RANKL, TRAP staining); type: cell-based, mice (C57BL/6J); details: mouse bone marrow macrophages, rhM-CSF 30 ng/mL + RANKL 200 ng/mL, 5 days, light microscope, Examples 2, 3, 7, 8, 9, 11 tested against Comparative Example 1 as control, FIGS. 1 to 6
Protocol: Bone marrow cells were harvested from 4 to 5-week old male mice (C57BL/6J). Specifically, mice were sacrificed by cervical dislocation, and femur and tibia were extracted while removing muscles adhered around the bone with scissors and soaked in phosphate buffered saline (PBS). A 1 mL syringe filled with α-minimum essential medium (α-MEM) was put into one end of the femur and tibia from which bone marrow cells were then harvested.
The bone marrow cells were cultured to obtain macrophages. Specifically, the obtained bone marrow cells were placed in a 50 mL tube and centrifuged at 1500 rpm for 5 minutes. Then, the supernatant was removed, and a 3:1 mixture of a Gey's solution and PBS was added and maintained at room temperature for about 2 to 3 minutes. After another centrifugation (1500 rpm, 5 minutes), the supernatant was removed, α-MEM was added, followed by stirring, and then the cells were cultured in a 10 cm cell culture dish at 37° C. for 24 hours. After the third centrifugation (1500 rpm, 5 minutes), the supernatant was removed, a culture medium and a macrophage differentiation factor rhM-CSF (30 ng/mL) were added, and then the cells were cultured in a 10 cm cell culture dish at 37° C. for 3 days. After 3 days, macrophages adhered to the dish were scraped and collected in a tube, followed by centrifugation (1500 rpm, 5 minutes). […]

[2] = tested on: bone loss induced by ovariectomy; assay: Inhibitory effect on bone loss induced by ovariectomy in ovariectomized mouse models (tibia, μ-CT, TRAP staining); type: in vivo, female mice; details: ovariectomized mice, intraperitoneal for 3 weeks at intervals of 2 days, versus control group 1 (ovariectomy)
Excerpt: In order to examine the inhibitory effects of the compounds on the bone loss induced by ovariectomy in ovariectomized mouse models, 8-week old female mice were divided into control groups 1 and 2 and experimental group 1, each containing 5 mice.
The mice in control group 1 and experimental group 1 were subjected to ovariectomy via laparotomy, and the mice in control group 2 were subjected to laparotomy in the same manner as in control group 1 and experimental group 1, but without ovariectomy, and served as a sham control.
The compound of Example 13 was intraperitoneally administered to the mice of experimental group 1 for 3 weeks at intervals of 2 days after 7 days of recovery from the surgery. After verification of excision of ovary of mice, both tibiae were harvested from the mice of experimental group 1 and control groups 1 and 2, and cross-sections were consecutively imaged using μ-CT (Skyscan 1076, SKYS CAN N. V.) and V-works program (Cybermed) and reconstructed into 3-dimensional images. Then, the bone volume, bone density, and the number of trabecular bones were quantified using an image analysis program.
The experimental results and statistical analysis using ANOVA (one-way analysis of variance) if verify the Newman kulseu (Newman-Keuls test) significance is verified using the […] level or less, a significance test was performed.
In FIG. 9, the bone volume is expressed as a percentage (BV/TV %) of the bone volume (BV) of the harvested tibia to the total bone volume (TV), and in FIG. 11, the number of trabecular bones is expressed as the number of trabecular bones) per 1 millimeter (mm).
Moreover, the harvested tibiae were placed in PBS, formaldehyde added, and fixed for 24 hours and then decalcified in PBS to which was added 0.5 M EDTA. […] Moreover, the number of osteoclasts was analyzed under a microscope using the Osteomeasure software program (Osteometrics Inc., USA), and the results are shown in FIG. 13, in which the quantification of osteoclasts is expressed as the number of osteoclasts per bone surface 1 millimeter (mm). […]

Row | SMILES | differentiation of macrophages into osteoclasts [1] | reduction in bone volume of the tibia (BV/TV %) ([2]; FIG. 9) | bone density of the tibia ([2]; FIG. 10) | number of trabecular bones (per 1 mm) ([2]; FIG. 11)
1 | Oc1cc(-c2ccccc2)nn1-c1ccccn1 [Comparative Example 1, 3-phenyl-1-(pyridin-2-yl)-1H-pyrazol-5-ol] | more macrophages differentiated into osteoclasts | – | – | –
2 | COc1cc(/C=C/c2nn(-c3ccccn3)c(O)c2Cc2ccccc2)ccc1O [Example 13, 1-(pyridin-2-yl)-3-[(3-methoxy-4-hydroxyphenyl)-E-ethenyl]-4-benzyl-1H-pyrazol-5-ol] | – | less than that in control group 1 | higher | higher

— US20140128418A1, “PYRAZOLE DERIVATIVES, PREPARATION METHOD THEREOF, AND COMPOSITION FOR PREVENTING AND TREATING OSTEOPOROSIS CONTAINING SAME” (EWHA UNIVERSITY-INDUSTRY COLLABORATION FOUNDATION, priority 2011, published 2014)
